Data published in patent US20180256611A1, “BISPHOSPHONATES FOR INCREASING THE TYPE 2 CHARACTER OF A MODIC CHANGE” (ANTECIP BIOVENTURES II LLC, priority 2017, published 2018).
“And” between values parts separate entries of the source, which are not always exact repeats. Equal values may be shown once.

Tested on: Modic changes (MC) on MRI in chronic LBP patients
Assay: MRI study of size and type of Modic changes over one year after a single intravenous infusion of 5 mg zoledronic acid vs placebo
Format: in vivo, human
Protocol: This study was designed to compare changes in size and type of MC over one year after a single intravenous infusion of 5 mg zoledronic acid (ZA) vs placebo among chronic LBP patients with MC on MRI, and evaluate whether MRI changes correlate with improvement in clinical symptoms.
The study population consisted of patients with chronic LBP and MC on MRI. Inclusion criteria were LBP for at least three months, LBP intensity of at least six on a 10-cm Visual Analog Scale (VAS) or Oswestry Disability Index (ODI) of at least 30%, and a MC on MRI performed within at most six months prior to enrollment. The exclusion criteria included renal impairment, hypocalcaemia, hypersensitivity to bisphosphonates or the infusion, the presence of red flags, nerve root entrapment, willingness for early retirement, and childbearing potential.
All patients (N=20 in both intervention groups) had MRI at baseline (0.23-1.5 T) and one year (1.5-3 T). We evaluated the level, type, volume (cm^3) and proportion of M1 and M2 of all MC. MC were classified to pure M1 (M1 (100%)), mixed M1/2 with predominating M1 (M1/2 (65:35%)) or predominating M2 (M1/2 (35:65%)), and pure M2 (M2 (100%)). The first two were considered M1-dominant, and the latter two M2-dominant. Volumes of M1 and M2 were calculated separately for the primary MC, assumed to cause the symptoms, and for other MC. Cross tabulations were used to describe the distributions of MC type in ZA and placebo groups at baseline and one year. The treatment differences in M1 and M2 volumes, from baseline to one year, were analyzed using ANCOVA with adjustments for age, sex, body mass index and smoking. The correlations of MRI changes with changes in intensity of LBP (10-cm Visual Analog Scale) and Oswestry Disability Index (ODI) were analyzed using Pearson correlations.
Patients were randomized to receive a single intravenous infusion of 5 mg ZA in 100 ml saline (n=20) or 100 ml saline as placebo (n=20) over a 15-minute period. Before administration of the infusion, all patients received oral ibuprofen 600 mg or paracetamol 1 g to prevent acute phase reactions, and 100 000 units of Vitamin D (Vigantol®) to prevent hypocalcaemia. Patients, the principal investigator, performing the screening and follow-up assessments, and the radiologist evaluating the MRI scans were blinded to the treatment allocation.
Baseline MRIs were obtained with five 1.5 T units and a 0.23 T unit. There was some variation in imaging protocols due to the multiple units used. Protocols were of clinical imaging purpose established to spine imaging. The imaging parameters of sagittal T1-weighted (T1W) turbo spin-echo (TSE) or fast spin-echo (FSE) sequences with fluid attenuation inversion recovery (FLAIR) were repetition time (TR) 1800-2270 ms/inversion time (TI) 860 ms/echo time (TE) 9-29 ms (N=16) and without FLAIR: TR 326-793 ms/TE 8-18 ms (N=23). The imaging parameters of sagittal T2-weighted (T2W) TSE/FSE sequences were TR 3000-4500 ms/TE 105-130 ms (N=40). The imaging parameters of short tau inversion recovery sequences (STIR) were e.g. TR 3400/TI 150/TE 70. Spacing, including slice thickness and slice gap, of the image slices was 4.4-6.2 mm in all sequences.
At the one-year follow-up, MRIs were obtained with two 1.5 T units and a 3 T unit. The imaging parameters of sagittal T1-weighted TSE or FSE sequences with FLAIR were TR 2047-2270 ms/TI 860-900 ms/TE 9-29 ms (N=38) and without FLAIR: TR 540-587/TE 12-24 ms (N=2). The imaging parameters of sagittal T2-weighted TSE or FSE sequences were TR 2796-3500 ms/TE 101-123 ms (N=40). Spacing was 3.6-5 mm in all sequences.

[1] = ZA vs placebo, change to follow-up

O=P(O)(O)C(O)(Cn1ccnc1)P(=O)(O)O [ZA, zoledronic acid]
Total volume of other than the primary Modic lesion, difference (95% CI), unadjusted (ZA vs placebo): −0.21 (−1.28, 0.86) cm^3 | Volume of M1 of other than the primary Modic lesion, difference (95% CI), unadjusted (ZA vs placebo): −0.17 (−2.12, 1.78) cm^3 | Volume of M2 of other than the primary Modic lesion, difference (95% CI), unadjusted (ZA vs placebo): −0.04 (−1.99, 1.90) cm^3 | Total volume of the primary Modic lesion, difference (95% CI), adjusted for age, sex, BMI and smoking [1]: −1.64 (−4.03, 0.76) cm^3 | Total volume of the primary Modic lesion, difference (95% CI), age-adjusted analysis [1]: −1.46 (−3.50, 0.59) cm^3 | Volume of M1 of the primary Modic lesion, difference (95% CI), age-adjusted analysis [1]: −1.92 (−4.65, 0.82) cm^3 | Volume of M2 of the primary Modic lesion, difference (95% CI), adjusted for age, sex, BMI and smoking [1]: 0.12 cm^3 and 0.12 (−2.50, 2.75) cm^3 | Volume of M2 of the primary Modic lesion, difference (95% CI), age-adjusted analysis [1]: 0.46 (−1.90, 2.82) cm^3 | Proportion of M1 volume of the total volume, other than primary MC (at baseline, placebo 22%): 13% | Proportion of M1 volume of the total volume, other than primary MC (at one year, placebo 36%): 24% | Total volume of other than the primary Modic lesion, mean (SD) (baseline): 7.53 (7.53) cm^3 | Total volume of the primary Modic lesion, mean (SD) (baseline): 12.0 cm^3 and 11.99 (5.14) cm^3 | Volume of M2 of other than the primary Modic lesion, mean (SD) (baseline): 6.52 (7.63) cm^3 | Volume of M2 of the primary Modic lesion, mean (SD) (baseline): 4.54 (3.90) cm^3 | Total volume of other than the primary Modic lesion, mean (SD) change (baseline to follow-up): 0.39 (1.02) cm^3 | Volume of M1 of other than the primary Modic lesion, mean (SD) change (baseline to follow-up): 0.86 (2.19) cm^3 | Volume of M2 of other than the primary Modic lesion, mean (SD) change (baseline to follow-up): −0.47 (2.44) cm^3 | Total volume of other than primary MC increased by (baseline to one year, placebo 11%): 5% | M2 volume of primary MC increased by (baseline to one year, placebo 34%): 56% | M1 volume of primary MC decreased by (baseline to one year, placebo increased by 18%): 13% | Total volume of the primary Modic lesion, mean (SD) change (baseline to one-year follow-up): 1.6 cm^3 and 1.58 (2.18) cm^3 | Volume of M1 of the primary Modic lesion, mean (SD) change (baseline to one-year follow-up): −0.96 cm^3 and −0.96 (4.33) cm^3 | Volume of M2 of the primary Modic lesion, mean (SD) change (baseline to one-year follow-up): 2.54 cm^3 and 2.54 (2.94) cm^3 | Volume of M1 of other than the primary Modic lesion, mean (SD) (baseline, n=17): 1.02 (1.90) cm^3 | Volume of M1 of the primary Modic lesion, mean (SD) (baseline, n=20): 7.44 (4.47) cm^3 | Total volume of other than the primary Modic lesion, mean (SD) (follow-up): 7.92 (7.31) cm^3 | Volume of M1 of other than the primary Modic lesion, mean (SD) (follow-up): 1.88 (2.47) cm^3 | Volume of M2 of other than the primary Modic lesion, mean (SD) (follow-up): 6.05 (6.43) cm^3 | Total volume of the primary Modic lesion, mean (SD) (follow-up (one year)): 13.57 (5.42) cm^3 | Volume of M1 of the primary Modic lesion, mean (SD) (follow-up (one year)): 6.48 (5.25) cm^3 | Volume of M2 of the primary Modic lesion, mean (SD) (follow-up (one year)): 7.09 (4.50) cm^3 | M1-dominant primary MC converted to M2-dominant (one-year follow-up, placebo 15% (p=0.087)): 45%
